Measurements taken from US12162878B2 (HINOVA PHARMACEUTICALS INC., priority 2018, dated 2024).
Where “and” joins values, the source holds several entries; their conditions need not be identical. Identical values can stand only once.

What was measured:
BRD2(1,2) = BRD2(1,2) (Homo sapiens (Human), UniProt P25440); assay: AlphaScreen binding of compounds on BRD2 (D1+D2); settings: read-out: IC50 against BRD2(1,2)
From the text: (§1) Homogeneous time-resolved fluorescence technology (HTRF) was used to determine the binding effect of compounds on BRD4 (D1+D2) and BRDT (D1) proteins, as well as AlphaScreen method was used to detect the binding effect of compounds on BRD2 (D1+D2) and BRD3 (D1+D2) proteins.
(§2) The compounds were screened in vitro, and each compound was serially diluted to 10 concentrations. Four proteins BRD4 (D1+D2), BRDT (D1), BRD2 (D1+D2) and BRD3 (D1+D2) were chosen to determine the IC50 values of compounds (see Table 1).
(§3) 4. Compound treatment: The test compound was dissolved in dimethyl sulfoxide (DMSO), and the storage concentration was 10 mM.
(§4) 6. AlphaScreen Detection Procedures:
(§5) 1) Preparing One-Fold Concentration of Detection Buffer
(§6) One-fold concentration of detection buffer was prepared (Improved HEPES buffer)
(§7) 2) Gradient Dilution of Compounds
(§8) Echo automatic sampler was used to transfer the compound to the detection plate for gradient dilution, so that the final concentration of dimethyl sulfoxide was 0.1%.
(§9) 3) Preparation of Protein Solution
(§10) The protein was dissolved in one-fold concentration of detection buffer.
(§11) 4) Preparation of Substrate Solution
(§12) The peptide was dissolved in one-fold concentration of detection buffer to prepare the substrate solution.
(§13) 5) 5 μL protein solution was transferred to the detection plate, and one-fold concentration of detection buffer (5 μL) was placed in the negative control wells.
(§14) 6) The plate was incubated for 15 min at room temperature.
(§15) 7) 5 μL substrate solution was added to each well to start the reaction.
(§16) 8) The plate was incubated for additional 60 min at room temperature.
(§17) 9) Preparation of acceptor solution and donor solution in one-fold concentration of assay buffer Acceptor solution (15 μL) and donor solution (15 μL) were respectively added, and then incubated at room temperature for 60 min and protected against exposure to light.
(§18) 10) The endpoint was read in EnSpire and Alpha mode.
(§19) The experimental data were recorded in an Excel file and equation (1) was used to get the inhibition rate. Inh%=(Max−Signal)/(Max−Min)*100 Equation (1):
(§20) The obtained data were input into GraphPad software, and equation (2) was used to obtain the IC50 value. Y=Bottom+(Top−Bottom)/(1+10^((Log IC50−X)*Hill Slope)) Formula (2): […]
(§21) Wherein, Y axis was the inhibition rate, and the X axis was the compound concentration.

BRDT(D1) = BRDT(D1) (Homo sapiens (Human), UniProt Q58F21); assay: HTRF binding of compounds on BRDT (D1); settings: read-out: IC50 against BRDT(D1)
From the text: as §1, §2, §3
(§22) 5. Steps for Homogeneous Time-Resolved Fluorescence Detection:
(§23) 1) According to the arrangement of the detection plate, all compounds were diluted in Echo plate.
(§24) The final dilution concentration of DMSO is 0.1%.
(§25) 2) The compound or DMSO was transferred to a 384-well detection plate with the Echo automatic sampler.
(§26) 3) Two-fold concentration of the mixture of protein and peptide was added to the detection plate.
(§27) 4) Two-fold concentration of mixed detection solution was added to the test plate, and shaken for 30 s.
(§28) 5) Incubating for 2 h at room temperature.
(§29) 6) Fluorescence signal was read on Envision multi-function microplate reader (excitation light wavelength being 340 nm, and emission light wavelength being 615 nm and 665 nm).
(§30) The experimental data were recorded in an Excel file, and equation (1) was used to obtain the inhibition rate. Inh%=(Max−Signal)/(Max−Min)*100 Equation (1):
(§31) The obtained data was recorded in GraphPad software, and equation (2) was used to provide the IC50 values. Y=Bottom+(Top−Bottom)/(1+10^((Log IC50−X)*Hill Slope)) Equation (2): […]
(§32) Y axis was the inhibition rate, and X axis was the compound concentration.

CWR22RV1 cells = assay: Inhibition of proliferation of CWR22RV1 cells (CCK-8); format: cell-based, human; settings: Homo sapiens, CWR22Rv1, 144 h, 6 days
Procedure, shortened: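 Cells seeded at 1500/well, cultured overnight, then exposed to compounds in 3-fold dilutions (9 concentrations from 10 μM top final, 0.1% DMSO) for 6 days at 37 °C. Viability read by CCK-8 absorbance at 450 nm after 2.5 h; IC50 from dose-response inhibition fit.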

BRD4(1,2) = BRD4(1,2) (Homo sapiens (Human), UniProt O60885); assay: HTRF binding of compounds on BRD4 (D1+D2); settings: read-out: IC50 against BRD4(1,2)
From the text: as §1, §2, §3, §22, §23, §24, §25, §26, §27, §28, §29, §30, §31, §32

BRD3(1,2) = BRD3(1,2) (Homo sapiens (Human), UniProt Q15059); assay: AlphaScreen binding of compounds on BRD3 (D1+D2); settings: read-out: IC50 against BRD3(1,2)
From the text: as §1, §2, §3, §4, §5, §6, §7, §8, §9, §10, §11, §12, §13, §14, §15, §16, §17, §18, §19, §20, §21

BRD3(1,2), sequence (Q15059 29-417): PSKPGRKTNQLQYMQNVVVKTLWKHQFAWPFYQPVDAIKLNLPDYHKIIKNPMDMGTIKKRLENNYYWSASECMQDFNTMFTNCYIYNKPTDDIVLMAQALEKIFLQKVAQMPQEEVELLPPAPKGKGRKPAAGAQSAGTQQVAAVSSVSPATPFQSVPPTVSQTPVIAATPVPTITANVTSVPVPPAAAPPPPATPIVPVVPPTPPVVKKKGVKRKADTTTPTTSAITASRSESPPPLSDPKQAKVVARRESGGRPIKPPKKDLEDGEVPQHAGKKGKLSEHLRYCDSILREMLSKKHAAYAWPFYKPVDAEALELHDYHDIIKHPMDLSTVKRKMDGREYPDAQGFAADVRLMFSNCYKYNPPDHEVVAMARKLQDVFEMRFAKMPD
BRD2(1,2), sequence (P25440 65-459): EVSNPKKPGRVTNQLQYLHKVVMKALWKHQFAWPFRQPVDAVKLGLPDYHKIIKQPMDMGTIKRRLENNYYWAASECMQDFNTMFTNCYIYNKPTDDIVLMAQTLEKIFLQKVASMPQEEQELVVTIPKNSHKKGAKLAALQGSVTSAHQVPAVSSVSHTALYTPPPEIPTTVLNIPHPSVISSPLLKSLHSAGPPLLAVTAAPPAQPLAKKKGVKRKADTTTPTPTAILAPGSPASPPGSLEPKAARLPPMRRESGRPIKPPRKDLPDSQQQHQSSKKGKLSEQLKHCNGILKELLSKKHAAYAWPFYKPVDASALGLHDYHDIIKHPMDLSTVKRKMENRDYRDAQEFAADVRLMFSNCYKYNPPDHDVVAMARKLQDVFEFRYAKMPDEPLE

Row | IC50 (BRD2(1,2)) | IC50 (BRDT(D1)) | IC50 (BRD4(1,2)) | IC50 (BRD3(1,2)) | SMILES | IC50 (CWR22RV1 cells) [nM]
1 | 1.1 nM | 21 nM | 7.1 nM | 4.3 nM | [2H]C([2H])([2H])n1cc(-c2cc(S(C)(=O)=O)ccc2N2CCC3(CC2)CC3)c2cc[nH]c2c1=O [Compound 56, 6-trideuteromethyl-4-(5(methylsulfonyl)-2-(6-aza-spiro[2.5]octan-6-yl)phenyl)-1H-pyrrolo[2,3-c]pyridin-7(6H)-one] | 3
2 | 1.7 nM | 13 nM | 4.3 nM | 4.6 nM | [2H]C([2H])([2H])n1cc(-c2cc(S(=O)(=O)NC)cnc2N2CCC3(CC2)CC3(F)F)c2cc[nH]c2c1=O [Compound 212, 6-(1,1-difluoro-6-aza-spiro[2.5]octan-6-yl)-N-methyl-5-(6-trideuteromethyl-7-oxo-6,7-dihydro-1H-pyrrolo[2,3-c]pyridin-4-yl)pyridin-3-sulfonamide] | 
3 | 1.6 nM | 15 nM | 4.1 nM | 4.4 nM | [2H]C([2H])([2H])NS(=O)(=O)c1cnc(N2CCC3(CC2)CC3(F)F)c(-c2cn(C([2H])([2H])[2H])c(=O)c3[nH]ccc23)c1 [Compound 213, 6-(1,1-difluoro-6-aza-spiro[2.5]octan-6-yl)-N-trideuteromethyl-5-(6-trideuteromethyl-7-oxo-6,7-dihydro-1H-pyrrolo[2,3-c]pyridin-4-yl) pyridin-3-sulfonamide] | 
4 | 2.9 nM | 16 nM | 5.3 nM | 5 nM | [2H]C([2H])([2H])n1cc(-c2cc(S(=O)(=O)CC)cnc2N2CCC3(CC2)CC3(F)F)c2cc[nH]c2c1=O [Compound 215, 4-(2-(1,1-difluoro-6-aza-spiro[2.5]octan-6-yl)-5-(ethylsulfonyl)pyridin-3-yl)-6-trideuteromethyl-1H-pyrrolo[2,3-c]pyridin-7(6H)-one] | 
5 | 1.4 nM and 1.5 nM | 20 nM and 19 nM | 6.2 nM and 4.9 nM | 4.9 nM and 4.5 nM | [2H]C([2H])([2H])n1cc(-c2cc(S(N)(=O)=O)c(F)cc2N2CCC3(CC2)CC3(F)F)c2cc[nH]c2c1=O [Compound 217, 4-(1,1-difluoro-6-aza-spiro[2.5]octan-6-yl)-2-fluoro-5-(6-trideuteromethyl-7-oxo-6,7-dihydro-1H-pyrrolo[2,3-c]pyridin-4-yl)benzenesulfonamide] | 
6 |  |  |  |  | [2H]C([2H])([2H])n1cc(-c2cc(S(=O)(=O)C(C)C)ccc2N2CCC3(CC2)CC3)c2cc[nH]c2c1=O [Compound 234, 4-(5-(isopropylsulfonyl)-2-(6-aza-spiro[2.5]octan-6-yl)phenyl)-6-trideuteromethyl-1H-pyrrolo[2,3-c]pyridin-7(6H)-one] | 0.9
7 |  |  |  |  | [2H]C([2H])([2H])n1cc(-c2cc(S(=O)(=O)CC(=O)O)ccc2N2CCC3(CC2)CC3)c2cc[nH]c2c1=O [Compound 235, 2-((3-(6-trideuteromethyl-7-oxo-6,7-dihydro-1H-pyrrolo[2,3-c]pyridin-4-yl)-4-(6-aza-spiro[2.5]octan-6-yl)phenyl)sulfonyl)acetic acid] | 1.7
8 |  |  |  |  | [2H]C([2H])([2H])n1cc(-c2cc(S(N)(=O)=O)c(F)cc2N2CCC3(CC2)CC3)c2cc[nH]c2c1=O [Compound 236, 2-fluoro-5-(6-trideuteromethyl-7-oxo-6,7-dihydro-1H-pyrrolo [2,3-c]pyridin-4-yl)-4-(6-aza-spiro[2.5]octan-6-yl)benzenesulfonamide] | 3.2
9 |  |  |  |  | [2H]C([2H])([2H])n1cc(-c2cc(S(C)(=O)=O)c(N3CCC4(CC3)CC4)cc2F)c2cc[nH]c2c1=O [Compound 237, 4-(2-fluoro-5-(methanesulfonyl)-4-(6-aza-spiro[2.5]octan-6-yl)phenyl)-6-trideuteromethyl-1H-pyrrolo[2,3-c]pyridin-7(6H)-one] | 4.2
10 |  |  |  |  | [2H]C([2H])([2H])n1cc(-c2cc(S(C)(=O)=O)c(F)cc2N2CCC3(CC2)CC3)c2cc[nH]c2c1=O [Compound 238, 4-(4-fluoro-5-(methanesulfonyl)-2-(6-aza-spiro[2.5]octan-6-yl)phenyl)-6-trideuteromethyl-1H-pyrrolo[2,3-c]pyridin-7(6H)-one] | 8
11 |  |  |  |  | [2H]C([2H])([2H])n1cc(-c2cc(S(=O)(=O)N3CCCC3C(=O)O)ccc2N2CCC3(CC2)CC3(F)F)c2cc[nH]c2c1=O (stereo not shown) [Compound 244, 1-((4-(1,1-difluoro-6-aza-spiro[2.5]octan-6-yl)-3-(6-trideuteromethyl-7-oxo-6,7-dihydro-1H-pyrrolo[2,3-c]pyridin-4-yl)phenyl)sulfonyl)pyrrolidin-2-carboxylic acid] | 81
12 |  |  |  |  | Cn1cc(-c2cc(N)ccc2N2CCC3(CC2)CC3)c2cc[nH]c2c1=O [Compound 245, 4-(5-amino-2-(6-aza-spiro[2.5]octan-6-yl)phenyl)-6-methyl-1H-pyrrolo[2,3-c]pyridin-7(6H)-one] | 230
13 |  |  |  |  | Cn1cc(-c2cc(NS(C)(=O)=O)ccc2N2CCC3(CC3)C2)c2cc[nH]c2c1=O [Compound 246, N-(3-(6-methyl-7-oxo-6,7-dihydro-1H-pyrrolo[2,3-c]pyridin-4-yl)-4-(5-aza-spiro[2.4]heptan-5-yl)phenyl)methanesulfonamide] | 30
14 |  |  |  |  | Cn1cc(-c2cc(NC(=O)CCC(=O)O)ccc2N2CCC3(CC2)CC3)c2cc[nH]c2c1=O [Compound 247, 4-((3-(6-methyl-7-oxo-6,7-dihydro-1H-pyrrolo[2,3-c]pyridin-4-yl)-4-(6-aza-spiro[2.5]octan-6-yl)phenyl)amino)-4-oxobutyric acid] | 670
15 |  |  |  |  | Cn1cc(-c2cc(S(C)(=O)=O)ccc2N2CCCC2C(=O)O)c2cc[nH]c2c1=O (stereo not shown) [Compound 248, 1-(2-(6-methyl-7-oxo-6,7-dihydro-1H-pyrrolo[2,3-c]pyridin-4-yl)-4-(methanesulfonyl)phenyl)pyrrolidin-2-carboxylic acid] | 7000
16 |  |  |  |  | Cn1cc(-c2cc(S(C)(=O)=O)ccc2N2CCCC2CCl)c2cc[nH]c2c1=O (stereo not shown) [Compound 249, 4-(2-(2-(chloromethyl)pyrrolidin-1-yl)-5-(methanesulfonyl)phenyl)-6-methyl-1H-pyrrolo[2,3-c]pyridin-7(6H)-one] | 130
17 | 1.2 nM | 13 nM | 3.4 nM | 3.9 nM | [2H]C([2H])([2H])n1cc(-c2cc(S(N)(=O)=O)ccc2N2CCC3(CC2)CC3(F)F)c2cc[nH]c2c1=O [Compound 251, 4-(1,1-difluoro-6-aza-spiro[2.5]octan-6-yl)-3-(6-trideuteromethyl-7-oxo-6,7-dihydro-1H-pyrrolo[2,3-c]pyridin-4-yl)benzenesulfonamide] | 
18 | 160 nM | 830 nM | 680 nM | 240 nM | [2H]C([2H])([2H])n1cc(-c2cc(S(=O)(=O)N3C[C@H](O)C[C@H]3C(=O)O)ccc2N2CCC3(CC2)CC3(F)F)c2cc[nH]c2c1=O [Compound 252, (2S,4R)-1-((4-(1,1-difluoro-6-aza-spiro[2.5]octan-6-yl)-3-(6-trideuteromethyl-7-oxo-6,7-dihydro-1H-pyrrolo[2,3-c]pyridin-4-yl)phenyl)sulfonyl)-4-hydroxylpyrrolidin-2-carboxylic acid] | 
